The inhibition is the change of the read-out against control, counted positive when it falls. A low value points to a response near the control. For orientation: pIC50 means the IC50 on a negative log10 scale, so that one unit is a factor of ten.

pIC50: −log10 of the molar value.

This note sets out measurements from patent publication US9284333B2, “Fused pyrroledicarboxamides and their use as pharmaceuticals” (SANOFI, priority 2012, dated 2016).

Human TASK-1 channels, sequence (O14649 whole entry): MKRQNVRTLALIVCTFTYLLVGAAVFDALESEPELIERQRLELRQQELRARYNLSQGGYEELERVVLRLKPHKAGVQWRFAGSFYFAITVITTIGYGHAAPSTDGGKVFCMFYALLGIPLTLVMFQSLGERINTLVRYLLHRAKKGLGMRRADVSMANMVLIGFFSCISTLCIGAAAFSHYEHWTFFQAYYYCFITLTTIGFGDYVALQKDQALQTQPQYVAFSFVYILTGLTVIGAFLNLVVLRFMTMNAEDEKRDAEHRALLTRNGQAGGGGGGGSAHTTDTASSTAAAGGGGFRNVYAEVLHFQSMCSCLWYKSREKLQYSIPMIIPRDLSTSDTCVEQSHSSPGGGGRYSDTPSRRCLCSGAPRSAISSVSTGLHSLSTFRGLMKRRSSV

In the first assay the target is Human TASK-1 channels (Homo sapiens (Human), UniProt O14649). The experiment in a line: Determination of the activity on the TASK-1 channel in Xenopus oocytes (two-microelectrode voltage clamp). In kind it is cell-based. Particulars: compound concentration 5 μM. The method in brief:
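Current during 500 ms pulses to 40 mV from a −90 mV hold was recorded in oocytes expressing human TASK-1 for two days after cRNA injection. Compounds were added cumulatively to the ND96 bath (pH 7.4, room temperature). IC50 came from dose-response fitting of inhibition relative to pre-compound current.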
`CC(C)[C@@H](NC(=O)c1cc(C(=O)N2CCC[C@@H]2C)c2n1CCOC2)c1ccc(C(F)(F)F)nc1` [16po, 8-((S)-2-Methyl-pyrrolidine-1-carbonyl)-3,4-dihydro-1H-pyrrolo[2,1-c][1,4]oxazine-6-carboxylic acid [(R)-2-methyl-1-(6-trifluoromethyl-pyridin-3-yl)-propyl]-amide] gave an inhibition at 5 µM of 71%.
The molecule `CC[C@H](NC(=O)c1cc(C(=O)N2CCC[C@@H]2C)n2c1COCC2)c1ccc(C(F)(F)F)c(F)c1` [16bn, 6-((S)-2-Methyl-pyrrolidine-1-carbonyl)-3,4-dihydro-1H-pyrrolo[2,1-c][1,4]oxazine-8-carboxylic acid [(S)-1-(3-fluoro-4-trifluoromethyl-phenyl)-propyl]-amide] had an inhibition at 5 µM of 63%.

Staying with this assay, now noted: human TASK-1 expressed in Xenopus oocytes, room temperature; read-out: IC50 value for TASK-1 inhibition.
As to `CC[C@@H](NC(=O)c1cc(C(=O)N2CCC[C@@H]2C)n2c1COCC2)c1ccc(Br)s1` [16bg, 6-((S)-2-methyl-pyrrolidine-1-carbonyl)-3,4-dihydro-1H-pyrrolo[2,1-c][1,4]oxazine-8-carboxylic acid [(R)-1-(5-bromo-thiophen-2-yl)-propyl]-amide], the pIC50 was 6.55.
On the same count and under the same terms, the figure for `O=C(N[C@@H](c1ccc(F)cc1)C1CC1)c1cc(C(=O)N2CCCC2)n2c1COCC2` [16dg, 6-(Pyrrolidine-1-carbonyl)-3,4-dihydro-1H-pyrrolo[2,1-c][1,4]oxazine-8-carboxylic acid [(R)-cyclopropyl-(4-fluoro-phenyl)-methyl]-amide] is 6.52; for `CC[C@@H](NC(=O)c1cc(C(=O)NC(C)c2cnccn2)n2c1COCC2)c1ccccc1` (stereo partly drawn) [16hl, 3,4-Dihydro-1H-pyrrolo[2,1-c][1,4]oxazine-6,8-dicarboxylic acid 8-[((R)-1-phenyl-propyl)-amide] 6-[(1-pyrazin-2-yl-ethyl)-amide]] it is 6.77.
On the same count and under the same terms, the figure for `CC[C@@H](NC(=O)c1cc(C(=O)N[C@H](C)C2CC2)n2c1CCCC2)c1ccccc1` [16mw, 5,6,7,8-Tetrahydro-indolizine-1,3-dicarboxylic acid 3-[((R)-1-cyclopropyl-ethyl)-amide] 1-[((R)-1-phenyl-propyl)-amide]] is 7.13.
Same read-out and setting: to `C[C@H]1CCCN1C(=O)c1cc(C(=O)NCc2c(F)cccc2Cl)c2n1CCOC2` [16nu, 6-((S)-2-Methyl-pyrrolidine-1-carbonyl)-3,4-dihydro-1H-pyrrolo[2,1-c][1,4]oxazine-8-carboxylic acid 2-chloro-6-fluoro-benzylamide] belongs 6.82.
As to `CC[C@@H](NC(=O)c1cc(C(=O)N(C)CC2CC2)n2c1COCC2)c1ccccc1` [16he, 3,4-Dihydro-1H-pyrrolo[2,1-c][1,4]oxazine-6,8-dicarboxylic acid 6-(cyclopropylmethyl-methyl-amide) 8-[((R)-1-phenyl-propyl)-amide]], the pIC50 was 6.31.
The same measure, in the same setting: the figure for `CC[C@@H](NC(=O)c1cc(C(=O)N2CC[C@H](OCC3CC3)C2)n2c1COCC2)c1ccccc1` [16ev, 6-((S)-3-Cyclopropylmethoxy-pyrrolidine-1-carbonyl)-3,4-dihydro-1H-pyrrolo[2,1-c][1,4]oxazine-8-carboxylic acid ((R)-1-phenyl-propyl)-amide] is 6.48; for `CC[C@@H](NC(=O)c1cc(C(=O)N2CCC[C@@H]2C)n2c1C(C)OCC2)c1ccccc1` (stereo partly drawn) [16lf, 1-Methyl-6-((S)-2-methyl-pyrrolidine-1-carbonyl)-3,4-dihydro-1H-pyrrolo[2,1-c][1,4]oxazine-8-carboxylic acid ((R)-1-phenyl-propyl)-amide] it is 6.96.
As to `CC[C@@H](NC(=O)c1c(Br)c(C(=O)N2CCC[C@@H]2C)n2c1COCC2)c1ccc(C(F)(F)F)nc1` [16ru, 7-Bromo-6-((S)-2-methyl-pyrrolidine-1-carbonyl)-3,4-dihydro-1H-pyrrolo[2,1-c][1,4]oxazine-8-carboxylic acid [(R)-1-(6-trifluoromethyl-pyridin-3-yl)-propyl]-amide], the negative logarithm of the IC50 (pIC50) is 6.09.
On the same count and under the same terms, to `CC[C@@H](NC(=O)c1cc(C(=O)N[C@H](C)c2cnccn2)c2n1CCOC2)c1ccc(F)cc1Cl` [16kn, 3,4-Dihydro-1H-pyrrolo[2,1-c][1,4]oxazine-6,8-dicarboxylic acid 6-{[(R)-1-(2-chloro-4-fluoro-phenyl)-propyl]-amide} 8-[((R)-1-pyrazin-2-yl-ethyl)-amide]] belongs 6.89; to `CC[C@@H](NC(=O)c1cc(C(=O)NCc2ncccn2)n2c1COCC2)c1ccccc1` [16hj, 3,4-Dihydro-1H-pyrrolo[2,1-c][1,4]oxazine-6,8-dicarboxylic acid 8-[((R)-1-phenyl-propyl)-amide] 6-[(pyrimidin-2-ylmethyl)-amide]], 6.28.
The same measure, in the same setting: the figure for `CC[C@@H](NC(=O)c1cc(C(=O)N[C@H](CC)c2cccnc2OC)n2c1COCC2)c1ccccc1` [16ig, 3,4-Dihydro-1H-pyrrolo[2,1-c][1,4]oxazine-6,8-dicarboxylic acid 6-{[(R)-1-(2-methoxy-pyridin-3-yl)-propyl]-amide} 8-[((R)-1-phenyl-propyl)-amide]] is 6.62; for `CC[C@@H](NC(=O)c1cc(C(=O)N[C@H](CC)c2cccc(O)n2)n2c1COCC2)c1ccccc1` [16rh, 3,4-Dihydro-1H-pyrrolo[2,1-c][1,4]oxazine-6,8-dicarboxylic acid 6-{[(R)-1-(6-hydroxy-pyridin-2-yl)-propyl]-amide} 8-[((R)-1-phenyl-propyl)-amide]] it is 6.62.
The same measure, in the same setting: the figure for `CC[C@H](NC(=O)c1cc(C(=O)N[C@H](CC)c2ccccc2)c2n1CCOC2)c1ccccc1` [16hs, 3,4-Dihydro-1H-pyrrolo[2,1-c][1,4]oxazine-6,8-dicarboxylic acid 6-[((S)-1-phenyl-propyl)-amide] 8-[((R)-1-phenyl-propyl)-amide]] is 7.00.
With `CC[C@@H](NC(=O)c1cc(C(=O)N2CCC[C@@H]2C)n2c1COCC2)c1cccc(C#N)c1` [16aj, 6-((S)-2-Methyl-pyrrolidine-1-carbonyl)-3,4-dihydro-1H-pyrrolo[2,1-c][1,4]oxazine-8-carboxylic acid [(R)-1-(3-cyano-phenyl)-propyl]-amide], the pIC50 is 6.26.
For `CC[C@@H](NC(=O)c1cc(C(=O)N2CCC[C@@H]2C)n2c1COCC2)c1cccc(C(F)(F)F)n1` [16ap], the pIC50 is 7.12.
Still for that read-out and setting: to `CC[C@@H](NC(=O)c1cc(C(=O)N2CCCC2(C)C)n2c1COCC2)c1ccccc1` [16fb, 6-(2,2-Dimethyl-pyrrolidine-1-carbonyl)-3,4-dihydro-1H-pyrrolo[2,1-c][1,4]oxazine-8-carboxylic acid ((R)-1-phenyl-propyl)-amide] belongs 6.89.
The same measure, in the same setting: the figure for `CC[C@@H](NC(=O)c1cc(C(=O)N2CCC[C@@H]2C)n2c1COCC2)c1c(Cl)cncc1Cl` [16bv, 6-((S)-2-Methyl-pyrrolidine-1-carbonyl)-3,4-dihydro-1H-pyrrolo[2,1-c][1,4]oxazine-8-carboxylic acid [(R)-1-(3,5-dichloro-pyridin-4-yl)-propyl]-amide] is 6.85.
Same read-out and setting: to `CCOC(=O)[C@H](C)N(C)C(=O)c1cc(C(=O)N[C@H](CC)c2ccccc2)c2n1CCOC2` [16l, (S)-2-{Methyl-[8-((R)-1-phenyl-propylcarbamoyl)-3,4-dihydro-1H-pyrrolo[2,1-c][1,4]oxazine-6-carbonyl]-amino}-propionic acid ethyl ester] belongs 6.77.
Consider `CC[C@@H](NC(=O)c1cc(C(=O)N2CC3CC3C2)n2c1COCC2)c1ccccc1` (stereo partly drawn) [16fe, 6-(3-Aza-bicyclo[3.1.0]hexane-3-carbonyl)-3,4-dihydro-1H-pyrrolo[2,1-c][1,4]oxazine-8-carboxylic acid ((R)-1-phenyl-propyl)-amide], for which the pIC50 was 6.82.
Take `CC[C@@H](NC(=O)c1cc(C(=O)N2CCC[C@@H]2C)n2c1COCC2)c1ccccc1` [16a, 6-((S)-2-Methyl-pyrrolidine-1-carbonyl)-3,4-dihydro-1H-pyrrolo[2,1-c][1,4]oxazine-8-carboxylic acid ((R)-1-phenyl-propyl)-amide]: the pIC50 was 7.16.
Same read-out and setting: to `CC[C@@H](NC(=O)c1cc(C(=O)NC(C)c2ncccn2)n2c1COCC2)c1ccc(F)cc1Cl` (stereo partly drawn) [16np, 3,4-Dihydro-1H-pyrrolo[2,1-c][1,4]oxazine-6,8-dicarboxylic acid 8-{[(R)-1-(2-chloro-4-fluoro-phenyl)-propyl]-amide} 6-[(1-pyrimidin-2-yl-ethyl)-amide]] belongs 6.77; to `C[C@@H](NC(=O)c1cc(C(=O)N[C@H](C)c2ccc(F)cc2)n2c1COCC2)c1ccc(F)cc1` [16dm, 3,4-Dihydro-1H-pyrrolo[2,1-c][1,4]oxazine-6,8-dicarboxylic acid bis-{[(R)-1-(4-fluoro-phenyl)-ethyl]-amide}], 6.90.
On the same count and under the same terms, to `CC[C@@H](NC(=O)c1cc(C(=O)N2CCCC2c2ccn(C)n2)n2c1COCC2)c1ccccc1` (stereo partly drawn) [16fv, 6-[2-(1-Methyl-1H-pyrazol-3-yl)-pyrrolidine-1-carbonyl]-3,4-dihydro-1H-pyrrolo[2,1-c][1,4]oxazine-8-carboxylic acid ((R)-1-phenyl-propyl)-amide] belongs 6.04.
`CC[C@@H](NC(=O)c1cc(C(=O)N(CC)Cc2nnn(C)n2)n2c1COCC2)c1ccccc1` [16rp, 3,4-Dihydro-1H-pyrrolo[2,1-c][1,4]oxazine-6,8-dicarboxylic acid 6-[ethyl-(2-methyl-2H-tetrazol-5-ylmethyl)-amide] 8-[((R)-1-phenyl-propyl)-amide]]: the pIC50 is 6.35.
Same read-out and setting: the figure for `CC[C@@H](NC(=O)c1cc(C(=O)Nc2cc(C(F)(F)F)ccc2Cl)c2n1CCOC2)c1ccccc1` [16jx, 3,4-Dihydro-1H-pyrrolo[2,1-c][1,4]oxazine-6,8-dicarboxylic acid 8-[(2-chloro-5-trifluoromethyl-phenyl)-amide] 6-[((R)-1-phenyl-propyl)-amide]] is 6.66.
